Assay results taken from patent US8859596B2, “Compounds as cannabinoid receptor ligands” (priority 2008, dated 2014).
Like-named read-outs stand apart in the source and are kept apart here.

Tests used:
[1] = target: rat CB2 (Rattus norvegicus (Rat), UniProt Q9QZN9); assay: rat CB2 radioligand binding assay ([3H]CP 55,940 competition)
Experimental: (§1) The CB1 and CB2 radioligand binding assays described herein are utilized to ascertain the affinity of compounds of the present application for binding to CB2 relative to CB1 receptors.
HEK293 cells stably expressing rat CB2 receptors were grown until a confluent monolayer was formed. Briefly, the cells were harvested and homogenized in TE buffer (50 mM Tris-HCl, 1 mM MgCl2, and 1 mM EDTA) using a polytron for 2×10 second bursts in the presence of protease inhibitors, followed by centrifugation at 45,000×g for 20 minutes. The final membrane pellet was re-homogenized in storage buffer (50 mM Tris-HCl, 1 mM MgCl2, and 1 mM EDTA and 10% sucrose) and frozen at −78° C. until used. Saturation binding reactions were initiated by the addition of membrane preparation (protein concentration of 20 μg/well for rat CB2) into wells of a deep well plate containing [^3H]CP 55,940 (120 Ci/mmol, a nonselective CB agonist commercially available from Tocris) in assay buffer (50 mM Tris, 2.5 mM EDTA, 5 mM MgCl2, and 0.5 mg/mL fatty acid free BSA, pH 7.4). After 45 min incubation at 30° C., binding reaction was terminated by the addition of 300 μl/well of cold assay buffer followed by rapid vacuum filtration through a UniFilter-96 GF/C filter plates (pre-soaked in 1 mg/mL BSA for 2 hours). The bound activity was counted in a TopCount using Microscint-20. Saturation experiments were conducted with twelve concentrations of [^3H]CP 55,940 ranging from 0.01 to 8 nM. Competition experiments were conducted with 0.5 nM [^3H]CP 55,940 and five concentrations of displacing ligands selected from the range of 0.01 nM to […] addition of 10 μM unlabeled CP 55,940 (Tocris, Ellisville, Mo.) was used to assess nonspecific binding.

[2] = target: human CB2 receptors (Homo sapiens (Human), UniProt P34972); assay: human CB2 radioligand binding assay ([3H]CP 55,940 competition)
Chain of human CB2 receptors (P34972 whole entry): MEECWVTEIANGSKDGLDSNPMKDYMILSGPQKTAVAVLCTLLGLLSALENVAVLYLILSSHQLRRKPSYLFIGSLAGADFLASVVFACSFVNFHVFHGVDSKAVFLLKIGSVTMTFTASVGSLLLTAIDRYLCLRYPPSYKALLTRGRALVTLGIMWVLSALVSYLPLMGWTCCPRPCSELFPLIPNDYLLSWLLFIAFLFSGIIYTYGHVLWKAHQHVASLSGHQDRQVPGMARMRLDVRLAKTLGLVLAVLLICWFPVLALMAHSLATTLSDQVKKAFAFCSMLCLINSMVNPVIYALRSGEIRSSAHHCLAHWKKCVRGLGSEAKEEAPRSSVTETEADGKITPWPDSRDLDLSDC
Experimental: as §1
HEK293 cells stably expressing human CB2 receptors were grown until a confluent monolayer was formed. Briefly, the cells were harvested and homogenized in TE buffer (50 mM Tris-HCl, 1 mM MgCl2, and 1 mM EDTA) using a polytron for 2×10 second bursts in the presence of protease inhibitors, followed by centrifugation at 45,000×g for 20 minutes. The final membrane pellet was re-homogenized in storage buffer (50 mM Tris-HCl, 1 mM MgCl2, and 1 mM EDTA and 10% sucrose) and frozen at −78° C. until used. Saturation binding reactions were initiated by the addition of membrane preparation (protein concentration of 5 μg/well for human CB2) into wells of a deep well plate containing [^3H]CP 55,940 (120 Ci/mmol, a nonselective CB agonist commercially available from Tocris) in assay buffer (50 mM Tris, 2.5 mM EDTA, 5 mM MgCl2, and 0.5 mg/mL fatty acid free BSA, pH 7.4). After 90 min incubation at 30° C., binding reaction was terminated by the addition of 300 μL/well of cold assay buffer followed by rapid vacuum filtration through a UniFilter-96 GF/C filter plates (pre-soaked in 1 mg/mL BSA for 2 hours). The bound activity was counted in a TopCount using Microscint-20. Saturation experiments were conducted with twelve concentrations of [^3H]CP 55,940 ranging from 0.01 to 8 nM. Competition experiments were conducted with 0.5 nM [^3H]CP 55,940 and five concentrations (0.01 nM to 10 μM) of displacing ligands. The addition of 10 μM unlabeled CP 55,940 (Tocris, Ellisville, Mo.) was used to assess nonspecific binding.

[3] = HEK293 membranes, 0.5 nM [3H]CP 55,940, read-out: rat CB2 (Ki)
[4] = HEK293 membranes, 0.5 nM [3H]CP 55,940, read-out: human CB2 (Ki)

Chain of rat CB2 (Q9QZN9 whole entry): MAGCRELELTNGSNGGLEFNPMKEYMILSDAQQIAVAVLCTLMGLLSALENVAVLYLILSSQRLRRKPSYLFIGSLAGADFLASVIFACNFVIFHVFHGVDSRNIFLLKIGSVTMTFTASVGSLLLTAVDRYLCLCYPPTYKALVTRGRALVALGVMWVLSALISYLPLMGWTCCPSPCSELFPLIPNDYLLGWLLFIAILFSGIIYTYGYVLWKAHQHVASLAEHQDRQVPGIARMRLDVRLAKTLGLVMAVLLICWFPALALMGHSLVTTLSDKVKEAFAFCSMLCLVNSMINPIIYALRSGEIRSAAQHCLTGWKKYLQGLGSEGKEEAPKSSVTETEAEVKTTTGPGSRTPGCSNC

Structure (SMILES) | Ki [1] | Ki [2] | Ki [1, 3] | Ki [2, 4]
Cn1c(C(C)(C)C)c/c(=N\C(=O)c2cc(C(F)(F)F)ccc2ONC(C)(C)C)n1CC1CC1 [Example 146, 2-[(tert-butylamino)oxy]-N-[(3E)-5-tert-butyl-2-(cyclopropylmethyl)-1-methyl-1,2-dihydro-3H-pyrazol-3-ylidene]-5-(trifluoromethyl)benzamide] | 14 nM | 54 nM |  | 
CCCCn1nc(C(C)(C)C)s/c1=N\C(=O)c1cc(C(F)(F)F)ccc1ON=C(N)c1ccc(F)cc1 [Example 182, 2-({[amino(4-fluorophenyl)methylene]amino}oxy)-N-[(2Z)-3-butyl-5-tert-butyl-1,3,4-thiadiazol-2(3H)-ylidene]-5-(trifluoromethyl)benzamide] |  |  | 7 nM | 21 nM
CCCCn1nc(C2(C)CC2)s/c1=N\C(=O)c1cc(C(F)(F)F)ccc1ONC(C)(C)C [Example 145, 2-[(tert-butylamino)oxy]-N-[(2Z)-3-butyl-5-(1-methylcyclopropyl)-1,3,4-thiadiazol-2(3H)-ylidene]-5-(trifluoromethyl)benzamide] |  |  | 2.5 nM | 16 nM
CCCCn1nc(C(C)(C)C)s/c1=N\C(=O)c1cc(C(F)(F)F)ccc1N(/N=C/c1cccc(C)n1)C(=O)OC(C)(C)C [Example 205, tert-butyl (2E)-1-[2-({[(2Z)-3-butyl-5-tert-butyl-1,3,4-thiadiazol-2(3H)-ylidene]amino}carbonyl)-4-(trifluoromethyl)phenyl]-2-[(6-methylpyridin-2-yl)methylene]hydrazinecarboxylate] | 43 nM | 44 nM |  | 
COCCn1nc(C(C)(C)C)s/c1=N\C(=O)c1cc(C(F)(F)F)ccc1ONC(C)(C)C [Example 158, 2-[(tert-butylamino)oxy]-N-[(2Z)-5-tert-butyl-3-(2-methoxyethyl)-1,3,4-thiadiazol-2(3H)-ylidene]-5-(trifluoromethyl)benzamide] |  |  | 3.6 nM | 39 nM
CCCCn1nc(C(C)(C)C)s/c1=N\C(=O)c1cc(C(F)(F)F)ccc1ON=C(C)N [Example 185, 2-({[1-aminoethylidene]amino}oxy)-N-[(2Z)-3-butyl-5-tert-butyl-1,3,4-thiadiazol-2(3H)-ylidene]-5-(trifluoromethyl)benzamide] |  |  | 3.6 nM | 16 nM
CCCCn1nc(C(C)(C)C)s/c1=N\C(=O)c1cc(C(F)(F)F)ccc1ON=C(N)C1CC1 [Example 188, 2-({[amino(cyclopropyl)methylene]amino}oxy)-N-[(2Z)-3-butyl-5-tert-butyl-1,3,4-thiadiazol-2(3H)-ylidene]-5-(trifluoromethyl)benzamide] |  |  | 0.9 nM | 2.5 nM
CCCCn1nc(C(C)(C)C)s/c1=N\C(=O)c1cc(C(F)(F)F)ccc1NNC(=O)OC [Example 192, methyl 2-[2-({[(2Z)-3-butyl-5-tert-butyl-1,3,4-thiadiazol-2(3H)-ylidene]amino}carbonyl)-4-(trifluoromethyl)phenyl]hydrazinecarboxylate] | 0.7 nM | 0.7 nM |  | 
CCCCn1nc(C(C)(C)C)s/c1=N\C(=O)c1cc(C(F)(F)F)ccc1NNCc1ccccc1 [Example 202, 2-(2-benzylhydrazino)-N-[(2Z)-3-butyl-5-tert-butyl-1,3,4-thiadiazol-2(3H)-ylidene]-5-(trifluoromethyl)benzamide] |  |  | 36 nM | 43 nM
CCCCn1nc(C(C)(C)C)s/c1=N\C(=O)c1cc(C(F)(F)F)ccc1NNC(=O)OC(C)(C)C [Example 181, tert-butyl 2-[2-({[(2Z)-3-butyl-5-tert-butyl-1,3,4-thiadiazol-2(3H)-ylidene]amino}carbonyl)-4-(trifluoromethyl)phenyl]hydrazinecarboxylate] | 1.7 nM | 1 nM |  | 
CCCCn1nc(C(C)(C)C)s/c1=N\C(=O)c1cc(C(F)(F)F)ccc1/N=N/C(C)(C)C [Example 148, N-[(2Z)-3-butyl-5-tert-butyl-1,3,4-thiadiazol-2(3H)-ylidene]-2-[(E)-tert-butyldiazenyl]-5-(trifluoromethyl)benzamide] |  |  | 15 nM | 6.2 nM
CCCCn1/c(=N/C(=O)c2cc(C(F)(F)F)ccc2NNC(=O)C(C)(C)C)cc(C(C)(C)C)n1C [Example 198, N-[(3E)-2-butyl-5-tert-butyl-1-methyl-1,2-dihydro-3H-pyrazol-3-ylidene]-2-[2-(2,2-dimethylpropanoyl)hydrazino]-5-(trifluoromethyl)benzamide] |  |  | 1.7 nM | 0.4 nM
CCCCn1nc(C(C)(C)C)s/c1=N\C(=O)c1ccc(C(F)(F)F)cc1ONC(C)(C)C [Example 170, 2-[(tert-butylamino)oxy]-N-[(2Z)-3-butyl-5-tert-butyl-1,3,4-thiadiazol-2(3H)-ylidene]-4-(trifluoromethyl)benzamide] |  |  | 6.3 nM | 127 nM
CC(C)(C)NOc1ccc(C(F)(F)F)cc1C(=O)/N=c1\sc(C(C)(C)C)nn1CC1CCCCO1 (stereo not drawn) [Example 147, 2-[(tert-butylamino)oxy]-N-[(2Z)-5-tert-butyl-3-(tetrahydro-2H-pyran-2-ylmethyl)-1,3,4-thiadiazol-2(3H)-ylidene]-5-(trifluoromethyl)benzamide] |  |  | 0.7 nM | 1.7 nM
Cn1c(C(C)(C)C)c/c(=N\C(=O)c2cc(C#N)ccc2ONC(C)(C)C)n1C[C@H]1CCCO1 [Example 161, 2-[(tert-butylamino)oxy]-N-{(3E)-5-tert-butyl-1-methyl-2-[(2R)-tetrahydrofuran-2-ylmethyl]-1,2-dihydro-3H-pyrazol-3-ylidene}-5-cyanobenzamide] |  |  | 11 nM | 209 nM
CCCCn1nc(C(C)(C)C)s/c1=N\C(=O)c1cc(C(F)(F)F)ccc1ON=C1CCCC1 [Example 190, N-[(2Z)-3-butyl-5-tert-butyl-1,3,4-thiadiazol-2(3H)-ylidene]-2-[(cyclopentylideneamino)oxy]-5-(trifluoromethyl)benzamide] |  |  | 3.2 nM | 1.7 nM
CCCCn1nc(C(C)(C)C)s/c1=N\C(=O)c1cc(C(F)(F)F)ccc1ON=C(N)CC [Example 186, 2-({[1-aminopropylidene]amino}oxy)-N-[(2Z)-3-butyl-5-tert-butyl-1,3,4-thiadiazol-2(3H)-ylidene]-5-(trifluoromethyl)benzamide] |  |  | 2.7 nM | 5.1 nM
CCCCn1nc(C(C)(C)C)s/c1=N\C(=O)c1cc(C(F)(F)F)ccc1NNC(=O)C(C)(C)C [Example 193, N-[(2Z)-3-butyl-5-tert-butyl-1,3,4-thiadiazol-2(3H)-ylidene]-2-[2-(2,2-dimethylpropanoyl)hydrazino]-5-(trifluoromethyl)benzamide] |  |  | 0.5 nM | 0.4 nM
CCCCn1nc(C(C)(C)C)s/c1=N\C(=O)c1cc(C(F)(F)F)ccc1O/N=C(\C)C(C)=O [Example 180, N-[(2Z)-3-butyl-5-tert-butyl-1,3,4-thiadiazol-2(3H)-ylidene]-2-({[(1E)-1-methyl-2-oxopropylidene]amino}oxy)-5-(trifluoromethyl)benzamide] |  |  | 11 nM | 18 nM
C/C(=N\Oc1ccc(C(F)(F)F)cc1C(=O)/N=c1\cc(C(C)(C)C)n(C)n1CC1CC1)C(F)(F)F [Example 179, N-[(3E)-5-tert-butyl-2-(cyclopropylmethyl)-1-methyl-1,2-dihydro-3H-pyrazol-3-ylidene]-5-trifluoromethyl-2-({[(1E)-2,2,2-trifluoro-1-methylethylidene]amino}oxy)benzamide] |  |  | 288 nM | > 1000 nM
CCCCn1nc(C(C)(C)C)s/c1=N\C(=O)c1cc(C(F)(F)F)ccc1ON=C1CCCCCN1 [Example 189, 2-{[azepan-2-ylideneamino]oxy}-N-[(2Z)-3-butyl-5-tert-butyl-1,3,4-thiadiazol-2(3H)-ylidene]-5-(trifluoromethyl)benzamide] |  |  | 4.9 nM | 1.6 nM
